# Source: patent publication US12291516B2, “Substituted 1-amino-1H-imidazole-5-carboxamide as Bruton's tyrosine kinase inhibitors” (Henan Zhiwei Biomedicine Co., Ltd., priority 2019, dated 2025)
# pIC50: −log10 of the molar value.
# Target: T1, BTK (Homo sapiens (Human), UniProt Q06187)
# Experiment: BTK inhibition assay by Reaction Biology Corporation (33P-ATP, filter-binding)
# Format: biochemical
# Conditions: footnote a: from Reaction Biology Corporation
# Protocol: (§1) BTK inhibition Assay and selectivity Assay The assay was conducted either a by a third party (Reaction Biology Corporation, PA, USA) or in house.
# a) Reagent and Procedure by Reaction Biology Corporation:
# Base Reaction buffer; 20 mM Hepes (pH 7.5), 10 mM MgCl2, 1 mM EGTA, 0.02%. Brij35, 0.02 mg/ml BSA, 0.1 mM Na3VO4, 2 mM DTT, 1% DMSO. Required cofactors were added individually to each kinase reaction. Compound handling: testing compounds were dissolved in 100% DMSO to specific concentration. The serial dilution was conducted by Integra Viaflo Assist in DMSO.
# The substrate was prepared in freshly prepared reaction buffer of above and required cofactors were added to the substrate solution. The kinase was delivered to the substrate solution and the mixture was gently mixed. Testing compounds in 100% DMSO was added to the kinase reaction mixture by Acoustic technology (Echo550; nanoliter range) and the new mixture was incubated for 20 min at room temperature. Then ^33P-ATP (Specific activity 10 μCi/μl) was added to the reaction mixture to initiate the reaction and the mixture was incubated for 2 hours at room temperature. The radioactivity was detected by filter-binding method and the kinase activity data was expressed as the percent of remaining kinase activity in test sample compared to vehicle (dimethyl sulfoxide) reaction. IC50 values and curve fits were obtained using Prism (GraphPad Software). The result is outlined in Table-I
# T1 sequence (Q06187 whole entry): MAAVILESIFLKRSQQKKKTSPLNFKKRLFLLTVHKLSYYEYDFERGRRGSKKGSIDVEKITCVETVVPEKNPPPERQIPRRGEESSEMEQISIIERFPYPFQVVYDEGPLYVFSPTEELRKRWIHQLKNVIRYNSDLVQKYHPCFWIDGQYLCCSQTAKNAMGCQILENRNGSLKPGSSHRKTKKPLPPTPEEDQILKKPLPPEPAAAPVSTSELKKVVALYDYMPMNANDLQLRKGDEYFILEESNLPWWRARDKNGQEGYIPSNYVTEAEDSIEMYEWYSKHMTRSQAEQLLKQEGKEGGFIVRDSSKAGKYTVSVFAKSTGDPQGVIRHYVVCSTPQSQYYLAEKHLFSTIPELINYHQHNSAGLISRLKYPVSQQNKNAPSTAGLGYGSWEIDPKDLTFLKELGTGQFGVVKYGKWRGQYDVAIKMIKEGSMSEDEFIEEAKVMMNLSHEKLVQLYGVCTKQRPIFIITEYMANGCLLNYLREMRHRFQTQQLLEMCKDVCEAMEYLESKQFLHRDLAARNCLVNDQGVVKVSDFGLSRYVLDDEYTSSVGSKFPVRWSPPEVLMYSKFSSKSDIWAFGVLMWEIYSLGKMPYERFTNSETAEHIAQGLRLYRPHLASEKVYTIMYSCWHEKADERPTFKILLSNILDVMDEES
row,pIC50,SMILES
1,7.07,"C#CC(=O)N1CCC[C@H]1c1nc(-c2ccc(C(=O)Nc3ccccn3)cc2)c(C(N)=O)n1N [Example 7, (S)-1-amino-2-(1-propioloylpyrrolidin-2-yl)-4-(4-(pyridin-2-ylcarbamoyl)phenyl)-1H-imidazole-5-carboxamide]"
2,5.23,"N#CN1CCC[C@H]1c1nc(-c2ccc(C(=O)Nc3ccccn3)cc2)c(C(N)=O)n1N [Example 9, (S)-1-amino-2-(1-cyanopyrrolidin-2-yl)-4-(4-(pyridin-2-ylcarbamoyl)phenyl)-1H-imidazole-5-carboxamide]"
3,7.87,"C#CC(=O)N1CCC[C@H]1c1nc(-c2ccc(C(=O)Nc3cc(OC)ccn3)cc2)c(C(N)=O)n1N [Example 33, (S)-1-amino-4-(4-((4-methoxypyridin-2-yl)carbamoyl)phenyl)-2-(1-propioloylpyrrolidin-2-yl)-1H-imidazole-5-carboxamide]"
4,5.66,"CCc1ccnc(NC(=O)c2ccc(-c3nc([C@@H]4CCCN4C(=O)C=C(C)C)n(N)c3C(N)=O)cc2)c1 [Example 37, (S)-1-amino-4-(4-((4-ethylpyridin-2-yl)carbamoyl)phenyl)-2-(1-(3-methylbut-2-enoyl)pyrrolidin-2-yl)-1H-imidazole-5-carboxamide]"

# Target: T1, BTK
# Experiment: In house ELISA kinase inhibition assay, BTK
# Format: biochemical
# Conditions: footnote b: from in house procedure (ELISA)
# Protocol: as §1
# b) In House Procedure for BTK, BMX, EGFR and ITK:
# Kinase inhibitory activities of compounds were evaluated using the Enzyme-linked immunosorbent assay (ELISA). The kinase enzyme of BTK, BMX, EGFR and ITK were purchased from Carna Bioscience (Kobe, Japan). A total of 10 ng/mL antiphosphotyrosine (PY713) antibody (abcam, Cambridge Science Park, UK) was precoated in 96-well ELISA plates. The kinase enzymes in each reaction well were set to BTK (101.25 ng/mL), BMX (90 ng/mL), EGFR (90 ng/mL) or ITK (120 ng/mL) and incubated with indicated drugs in 1× reaction buffer (50 mmol/L HEPES pH 7.4, 20 mmol/L MgCl2, 0.1 mmol/L MnCl2, 1 mmol/L DTT) containing 20 μmol/L (the final concentration of substrate in ITK reaction was 30 μmol/L) substrate (NH2-[…]-biotin) at 25° C. for 1 h. Then, a total of 3 μmol/L ATP was added and the reaction was continued for 2 h. The products of reaction were transferred into 96-well ELISA plates containing antibody and incubated at 25° C. for 30 min. After incubation, the wells were washed with PBS and then incubated with horseradish peroxidase (HRP)-conjugated streptavidin. The wells were visualized using 3,3′,5,5′-tetramethylbenzidine (TMB), and chromogenic reaction was ended with 2 mol/L H2SO4, the absorbance was read with a multimode plate reader (PerkinElmer, USA) at 450 nm. IC50 values and curve fits were obtained using Prism (GraphPad Software). (Table I-IV)
row,SMILES,pIC50
1,"CCc1ccnc(NC(=O)c2ccc(-c3nc([C@@H]4CCCCN4C(=O)/C(C#N)=C/C4CC4)n(N)c3C(N)=O)cc2)c1 [Example 78, (S,E)-1-amino-2-(1-(2-cyano-3-cyclopropylacryloyl)piperidin-2-yl)-4-(4-((4-ethylpyridin-2-yl)carbamoyl)phenyl)-1H-imidazole-5-carboxamide]",5.18
2,"CCc1ccnc(NC(=O)c2ccc(-c3nc([C@@H]4CCCCN4C(=O)/C(C#N)=C/C(C)C)n(N)c3C(N)=O)cc2)c1 [Example 79, (S,E)-1-amino-2-(1-(2-cyano-4-methylpent-2-enoyl)piperidin-2-yl)-4-(4-((4-ethylpyridin-2-yl)carbamoyl)phenyl)-1H-imidazole-5-carboxamide]",5.76
3,"C=CC(=O)N1CCCCCC1c1nc(-c2ccc(C(=O)Nc3cc(CC)ccn3)cc2)c(C(N)=O)n1N (stereo not shown) [Example 94, 2-(1-acryloylazepan-2-yl)-1-amino-4-(4-((4-ethylpyridin-2-yl)carbamoyl)phenyl)-1H-imidazole-5-carboxamide]",6.65
4,"C=CC(=O)N1CCCC[C@H]1c1nc(-c2ccc(C(=O)Nc3cccnn3)cc2)c(C(N)=O)n1N [Example 101, (S)-2-(1-acryloylpiperidin-2-yl)-1-amino-4-(4-(pyridazin-3-ylcarbamoyl)phenyl)-1H-imidazole-5-carboxamide]",6.68
5,"CC#CC(=O)N1CCCC[C@H]1c1nc(-c2ccc(C(=O)Nc3cccnn3)cc2)c(C(N)=O)n1N [Example 102, (S)-1-amino-2-(1-(but-2-ynoyl)piperidin-2-yl)-4-(4-(pyridazin-3-ylcarbamoyl)phenyl)-1H-imidazole-5-carboxamide]",5.64
6,"CC#CC(=O)N1CCC(Cc2nc(-c3ccc(C(=O)Nc4ccccn4)cc3)c(C(N)=O)n2N)CC1 [Example 104, 1-amino-2-((1-(but-2-ynoyl)piperidin-4-yl)methyl)-4-(4-(pyridin-2-ylcarbamoyl)phenyl)-1H-imidazole-5-carboxamide]",6.34

# Other lines, results leading:
row,pIC50,SMILES
1,7.75,"CC#CC(=O)N1CCCC[C@H]1c1nc(-c2ccc(C(=O)Nc3cc(CC)ccn3)cc2)c(C(N)=O)n1N [Example 77, (S)-1-amino-2-(1-(but-2-ynoyl)piperidin-2-yl)-4-(4-((4-ethylpyridin-2-yl)carbamoyl)phenyl)-1H-imidazole-5-carboxamide]"
2,7.34,"CC#CC(=O)N1CCCC[C@H]1c1nc(-c2ccc(C(=O)Nc3cc(C#N)ccn3)cc2)c(C(N)=O)n1N [Example 82, (S)-1-amino-2-(1-(but-2-ynoyl)piperidin-2-yl)-4-(4-((4-cyanopyridin-2-yl)carbamoyl)phenyl)-1H-imidazole-5-carboxamide]"
3,7.07,"C=CC(=O)N1CC2(CC(c3nc(-c4ccc(C(=O)Nc5cc(CC)ccn5)cc4)c(C(N)=O)n3N)C2)C1 [Example 95, 2-(2-acryloyl-2-azaspiro[3.3]heptan-6-yl)-1-amino-4-(4-((4-ethylpyridin-2-yl)carbamoyl)phenyl)-1H-imidazole-5-carboxamide]"
4,7.72,"C#CC(=O)N1CCCC[C@H]1c1nc(-c2ccc(C(=O)Nc3cc(C)ccn3)cc2)c(C(N)=O)n1N [Example 96, (S)-1-amino-4-(4-((4-methylpyridin-2-yl)carbamoyl)phenyl)-2-(1-propioloylpiperidin-2-yl)-1H-imidazole-5-carboxamide]"
5,8.04,"C#CC(=O)N1CCCC[C@H]1c1nc(-c2ccc(C(=O)Nc3cc(OC)ccn3)cc2)c(C(N)=O)n1N [Example 97, (S)-1-amino-4-(4-((4-methoxypyridin-2-yl)carbamoyl)phenyl)-2-(1-propioloylpiperidin-2-yl)-1H-imidazole-5-carboxamide]"
6,8.56,"C#CC(=O)N1CCCC[C@H]1c1nc(-c2ccc(C(=O)Nc3cc(Cl)ccn3)cc2)c(C(N)=O)n1N [Example 99, (S)-1-amino-4-(4-((4-chloropyridin-2-yl)carbamoyl)phenyl)-2-(1-propioloylpiperidin-2-yl)-1H-imidazole-5-carboxamide]"
7,8.00,"C#CC(=O)N1CCCC[C@H]1c1nc(-c2ccc(C(=O)Nc3cc(CC)ccn3)cc2)c(C(N)=O)n1N [Example 100, (S)-1-amino-4-(4-((4-ethylpyridin-2-yl)carbamoyl)phenyl)-2-(1-propioloylpiperidin-2-yl)-1H-imidazole-5-carboxamide]"
8,6.76,"C=CC(=O)N1CCC(Cc2nc(-c3ccc(C(=O)Nc4ccccn4)cc3)c(C(N)=O)n2N)CC1 [Example 103, 2-((1-acryloylpiperidin-4-yl)methyl)-1-amino-4-(4-(pyridin-2-ylcarbamoyl)phenyl)-1H-imidazole-5-carboxamide]"
9,7.82,"C=CC(=O)N1CCCC[C@H]1c1nc(-c2ccc(C(=O)Nc3cc(F)ccn3)cc2)c(C(N)=O)n1N [Example 106, (S)-2-(1-acryloylpiperidin-2-yl)-1-amino-4-(4-((4-fluoropyridin-2-yl)carbamoyl)phenyl)-1H-imidazole-5-carboxamide]"
10,7.35,"C=CC(=O)N1CCCC[C@H]1c1nc(-c2ccc(C(=O)Nc3cc(C)c(F)cn3)cc2)c(C(N)=O)n1N [Example 107, (S)-2-(1-acryloylpiperidin-2-yl)-1-amino-4-(4-((5-fluoro-4-methylpyridin-2-yl)carbamoyl)phenyl)-1H-imidazole-5-carboxamide]"
11,6.92,"CC#CC(=O)N1CCCC[C@H]1c1nc(-c2ccc(C(=O)Nc3cc(C)c(F)cn3)cc2)c(C(N)=O)n1N [Example 108, (S)-1-amino-2-(1-(but-2-ynoyl)piperidin-2-yl)-4-(4-((5-fluoro-4-methylpyridin-2-yl)carbamoyl)phenyl)-1H-imidazole-5-carboxamide]"
12,8.72,"C=CC(=O)N1CCCC[C@H]1c1nc(-c2ccc(C(=O)Nc3cc(-c4ccc(Cl)cc4)ccn3)cc2)c(C(N)=O)n1N [Example 109, (S)-2-(1-acryloylpiperidin-2-yl)-1-amino-4-(4-((4-(4-chlorophenyl)pyridin-2-yl)carbamoyl)phenyl)-1H-imidazole-5-carboxamide]"
13,7.83,"CC#CC(=O)N1CCCC[C@H]1c1nc(-c2ccc(C(=O)Nc3cc(-c4ccc(Cl)cc4)ccn3)cc2)c(C(N)=O)n1N [Example 110, (S)-1-amino-2-(1-(but-2-ynoyl)piperidin-2-yl)-4-(4-((4-(4-chlorophenyl)pyridin-2-yl)carbamoyl)phenyl)-1H-imidazole-5-carboxamide]"
14,7.97,"C=CC(=O)N1CCCC[C@H]1c1nc(-c2ccc(C(=O)Nc3cc(-c4ccc(C#N)cc4)ccn3)cc2)c(C(N)=O)n1N [Example 111, (S)-2-(1-acryloylpiperidin-2-yl)-1-amino-4-(4-((4-(4-cyanophenyl)pyridin-2-yl)carbamoyl)phenyl)-1H-imidazole-5-carboxamide]"
15,7.64,"CC#CC(=O)N1CCCC[C@H]1c1nc(-c2ccc(C(=O)Nc3cc(-c4ccc(C#N)cc4)ccn3)cc2)c(C(N)=O)n1N [Example 112, (S)-1-amino-2-(1-(but-2-ynoyl)piperidin-2-yl)-4-(4-((4-(4-cyanophenyl)pyridin-2-yl)carbamoyl)phenyl)-1H-imidazole-5-carboxamide]"
